# Article PMC10503991, “Synthesis of some new isoxazole compounds and their biological tyrosinase and antioxidant activities” (Turkish Journal of Chemistry, 2021)
# Target: mushroom tyrosinase (Agaricus bisporus, UniProt C7FF04)
# Experiment: Mushroom tyrosinase inhibition assay (L-DOPA substrate, 475 nm)
# Format: biochemical
# Settings: abstract, unit not given
# Method: The mushroom tyrosinase inhibition assay was carried out according previously reported method. […] After 10 min of a preincubation period at room temperature, the enzymatic reaction was initiated with the addition of L-DOPA (3 mM, 20 μL) as substrate. The absorbance was read at 475 nm. The compound concentration giving 50% inhibition of tyrosinase activity was determined by interpolation of concentration-response curves. […] The extract concentration giving 50% (IC50) of the original tyrosinase activity was determined.
# The position, number and nature of the substituent on benzene and pyridine rings were varied in order to identify the most appropriate group.
# mushroom tyrosinase, sequence (C7FF04 1-392): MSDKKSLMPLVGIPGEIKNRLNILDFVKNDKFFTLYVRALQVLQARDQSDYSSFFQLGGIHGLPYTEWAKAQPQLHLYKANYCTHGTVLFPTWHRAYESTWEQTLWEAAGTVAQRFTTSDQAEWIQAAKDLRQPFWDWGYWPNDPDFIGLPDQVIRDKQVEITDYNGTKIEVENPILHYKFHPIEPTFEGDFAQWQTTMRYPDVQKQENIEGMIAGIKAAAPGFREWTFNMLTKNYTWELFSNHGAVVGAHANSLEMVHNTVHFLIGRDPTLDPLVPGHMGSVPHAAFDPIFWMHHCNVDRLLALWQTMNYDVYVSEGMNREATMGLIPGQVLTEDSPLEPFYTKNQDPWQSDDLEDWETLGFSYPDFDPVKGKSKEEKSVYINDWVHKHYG
row,IC50 values for the tyrosinase enzyme inhibition,Compound
1,did not show any inhibition effect,"Oc1cccc(-c2cc(-c3ccccc3)on2)c1 [Compound 10, 3-(3-hydroxyphenyl)-5-(phenyl)isoxazole]"
2,did not show any inhibition effect,"COc1ccc(-c2cc(-c3ccc(OC)cc3OC)on2)cc1 [Compound 9, 3-(4-methoxyphenyl)-5-(2,4-dimethoxyphenyl)isoxazole]"
3,did not show any inhibition effect,"COc1ccc(-c2cc(-c3ccncc3)on2)cc1 [Compound 14, 3-(4-methoxyphenyl)-5-(4-pyridinyl)isoxazole]"

# Same assay, conditions: mushroom tyrosinase, L-DOPA substrate, kojic acid positive control
row,Tyrosinase (IC50 μg/mL),Compound
1,No inhibition,"Oc1cccc(-c2cc(-c3ccccc3)on2)c1 [Compound 10, 3-(3-hydroxyphenyl)-5-(phenyl)isoxazole]"
2,No inhibition,"COc1ccc(-c2cc(-c3ccc(OC)cc3OC)on2)cc1 [Compound 9, 3-(4-methoxyphenyl)-5-(2,4-dimethoxyphenyl)isoxazole]"
3,No inhibition,"COc1ccc(-c2cc(-c3ccncc3)on2)cc1 [Compound 14, 3-(4-methoxyphenyl)-5-(4-pyridinyl)isoxazole]"

# System: not listed separately
# Experiment: DPPH free radical scavenging method
# Settings: concentration causing 50% scavenging of DPPH radical; Trolox standard
# Method: The DPPH free radical scavenging activities of 8–14 compounds were determined using the method described before. Alcoholic solution of DPPH (1 mL, […] in methanol) was mixed with 8–14 compound solutions prepared in DMSO. […] DPPH gives a purple color in methanol. This color is decayed by antioxidant. So reduction in the absorbance indicates DPPH• scavenging activity. Trolox was used as standard radical scavenger and values were expressed as SC50 (μg compound per mL), the concentration of the samples that causes 50% scavenging of DPPH radical.
row,Compound,"DPPH, SC50"
1,"Oc1cccc(-c2cc(-c3ccccc3)on2)c1 [Compound 10, 3-(3-hydroxyphenyl)-5-(phenyl)isoxazole]",65.65 ± 1.69 µg/mL
2,"COc1ccc(-c2cc(-c3ccc(OC)cc3OC)on2)cc1 [Compound 9, 3-(4-methoxyphenyl)-5-(2,4-dimethoxyphenyl)isoxazole]",71.96 ± 2.36 µg/mL
3,"Cc1c(C)c2c(c(C)c1O)CCC(C)(C(=O)O)O2 (centres unmarked) [Trolox, reference compound]",5.56 ± 0.85 µg/mL
4,"COc1ccccc1-c1cc(-c2ccc(OC)c(OC)c2OC)on1 [Compound 8, 3-(2-methoxyphenyl)-5-(2,3,4-trimethoxyphenyl)isoxazole]",61.42 ± 1.41 µg/mL
5,"COc1ccc(OC)c(-c2cc(-c3ccc(O)cc3)no2)c1 [Compound 12, 3-(4-hydroxyphenyl)-5-(2,5-dimethoxyphenyl)isoxazole]",40.21 ± 2.71 µg/mL
6,"COc1ccc(-c2cc(-c3ccncc3)on2)cc1 [Compound 14, 3-(4-methoxyphenyl)-5-(4-pyridinyl)isoxazole]",54.41 ± 2.87 µg/mL
7,"COc1cccc(-c2cc(-c3ccccn3)on2)c1 [Compound 13, 3-(3-methoxyphenyl)-5-(2-pyridinyl)isoxazole]",57.32 ± 2.12 µg/mL
8,"COc1ccc(-c2cc(-c3cccc(O)c3)no2)c(OC)c1 [Compound 11, 3-(3-hydroxyphenyl)-5-(2,4-dimethoxyphenyl)isoxazole]",81.52 ± 3.66 µg/mL

# System: not given
# Experiment: not given
# Settings: not given
row,Compound,melting point
1,"Oc1cccc(-c2cc(-c3ccccc3)on2)c1 [Compound 10, 3-(3-hydroxyphenyl)-5-(phenyl)isoxazole]",230 to 231 °C
2,"COc1ccc(OC)c(-c2cc(-c3ccc(O)cc3)no2)c1 [Compound 12, 3-(4-hydroxyphenyl)-5-(2,5-dimethoxyphenyl)isoxazole]",176 to 178 °C
3,"COc1ccc(-c2cc(-c3ccncc3)on2)cc1 [Compound 14, 3-(4-methoxyphenyl)-5-(4-pyridinyl)isoxazole]",141 to 143 °C
4,"COc1ccc(-c2cc(-c3cccc(O)c3)no2)c(OC)c1 [Compound 11, 3-(3-hydroxyphenyl)-5-(2,4-dimethoxyphenyl)isoxazole]",168 to 169 °C

# Further lines, results first:
row,melting point,Compound
1,93 to 94 °C,"COc1ccc(-c2cc(-c3ccc(OC)cc3OC)on2)cc1 [Compound 9, 3-(4-methoxyphenyl)-5-(2,4-dimethoxyphenyl)isoxazole]"
2,102 to 103 °C,"COc1ccccc1-c1cc(-c2ccc(OC)c(OC)c2OC)on1 [Compound 8, 3-(2-methoxyphenyl)-5-(2,3,4-trimethoxyphenyl)isoxazole]"

# System: not listed separately
# Experiment: Cupric ion reducing (CUPRAC) method
# Settings: as printed in the results text b37
# Method: The capacity of 8–14 compounds to reduce cupric ions was established as it was described before. A reaction mixture was prepared by mixing a volume of CuCl2 (0.250 mL, 10 mM), neocuproine (0.250 mL, 7.5 mM in ethanol) and NH4Ac buffer (0.250 mL, 1 M, pH 7.0) with standard/compound solutions at different concentrations. SA blank was prepared by adding sample solution to premixed reaction mixture CuCl2. The absorbances of the blank and sample were read at 450 nm after a 30-min incubation at room temperature. The absorbance of the blank was subtracted from that of the sample. CUPRAC activity was expressed as equivalents of trolox (mg TEAC/mg compound).
row,Compound,CUPRAC values
1,"COc1cccc(-c2cc(-c3ccccn3)on2)c1 [Compound 13, 3-(3-methoxyphenyl)-5-(2-pyridinyl)isoxazole]",1.25 ± 0.019 mg TEAC/mg

# Same assay, conditions: trolox equivalents per mg compound
row,Compound,CUPRAC (mg TEAC/mg)
1,"Oc1cccc(-c2cc(-c3ccccc3)on2)c1 [Compound 10, 3-(3-hydroxyphenyl)-5-(phenyl)isoxazole]",0.789 ± 0.009 mg TEAC/mg
2,"COc1ccc(-c2cc(-c3ccc(OC)cc3OC)on2)cc1 [Compound 9, 3-(4-methoxyphenyl)-5-(2,4-dimethoxyphenyl)isoxazole]",0.856 ± 0.013 mg TEAC/mg
3,"COc1ccccc1-c1cc(-c2ccc(OC)c(OC)c2OC)on1 [Compound 8, 3-(2-methoxyphenyl)-5-(2,3,4-trimethoxyphenyl)isoxazole]",1.156 ± 0.026 mg TEAC/mg
4,"COc1ccc(OC)c(-c2cc(-c3ccc(O)cc3)no2)c1 [Compound 12, 3-(4-hydroxyphenyl)-5-(2,5-dimethoxyphenyl)isoxazole]",1.233 ± 0.015 mg TEAC/mg
5,"COc1ccc(-c2cc(-c3ccncc3)on2)cc1 [Compound 14, 3-(4-methoxyphenyl)-5-(4-pyridinyl)isoxazole]",1.189 ± 0.021 mg TEAC/mg
6,"COc1cccc(-c2cc(-c3ccccn3)on2)c1 [Compound 13, 3-(3-methoxyphenyl)-5-(2-pyridinyl)isoxazole]",1.245 ± 0.019 mg TEAC/mg
7,"COc1ccc(-c2cc(-c3cccc(O)c3)no2)c(OC)c1 [Compound 11, 3-(3-hydroxyphenyl)-5-(2,4-dimethoxyphenyl)isoxazole]",0.584 ± 0.011 mg TEAC/mg

# System: not given
# Experiment: not given
# Design: method as in PMID 33763478
# Settings: comparator in literature study; cited from earlier work
row,Compound,antioxidant activity in DPPH assay IC50
1,"Cc1c(C)c2c(c(C)c1O)CCC(C)(C(=O)O)O2 (centres unmarked) [Trolox, reference compound]",2.75 µg/mL
